Results published in paper PMC10380083, “Synthesis of Prostate-Specific Membrane Antigen-Targeted Bimodal Conjugates of Cytotoxic Agents and Antiandrogens and Their Comparative Assessment with Monoconjugates” (International Journal of Molecular Sciences, 2023).
Where two headings read alike, the source gives them in different places. *1 amine or outer side, *2 acyl side, *3 side chain or, on linkers, in order; H or OH if unused. Where a SMILES comes first, the peptide text is derived from it. [ ]: non-standard residue; d: D form. The star is where a group is joined. GluureaLys(ε-3-ClBenzyl) = O=C(O)CC[C@H](NC(=O)N[C@@H](CCCCN(Cc1cccc(Cl)c1)*)C(=O)O)C(=O)O; X3 = CC1(C)C(=O)N(c2ccc(C#N)c(C(F)(F)F)c2)C(=S)N1c1ccc(C(=O)*)c(F)c1; Dolaproine = CO[C@@H]([C@@H]1CCCN1)[C@@H](C)C(=O)O; Dil = CC[C@H](C)[C@H](NC)[C@@H](CC(=O)O)OC; X2 = O=C(CCCc1cn(CCCN[*:1])nn1)[*:2]; PABC = O=C(OCc1ccc(N[*:1])cc1)[*:2]; X1 = C[C@@H](N*)[C@@H](O)c1ccccc1; Cit = NC(=O)NCCC[C@H](N)C(=O)O; Suc = O=C(CCC(=O)[*:2])[*:1]; NMeV = CN[C@H](C(=O)O)C(C)C; Ahx = NCCCCCC(=O)O

How the values were obtained:
[1] = Body weight, general condition and mortality in the antitumor efficacy study; conditions: i.v. 132.3 nM/kg x3
Protocol: Animal body weight data are presented in Table S2 in the electronic supplementary materials.
To study the antitumor efficacy, conjugates were administered intravenously at a dose of 132.3 nM/kg to tumor-bearing mice three times at five-day intervals; administration was started 7−8 days after cell inoculation, and the tumor size was 70−90 mm^3. As a control substance, 0.9% sodium chloride solution was used. Experimental groups included five animals each. […] The mixture was dissolved in DMSO (5% of final solution) and diluted with hemodesum (30% low-molecular-weight polyvinylpyrrolidone (Mw = 8000 ± 200) saline infusion solution). The presence of tumors and their sizes, as well as the body weights of the mice, were recorded every five days during the observation of the animals. The antitumor effect was assessed by comparing the tumor volumes in the experimental and control groups as well as the amount of tumor growth inhibition (TGI, %). […]
(§1) 3.2.1. In vivo evaluation of antitumor efficacy […]
(§2) intravenously at a dose of 132.3 nM/kg to tumor-bearing mice three times at 5-day intervals, the administration was started 7-8 days after cell inoculation to animals, tumor size was 70-90 mm3.
(§3) A 0.9% sodium chloride solution was used as a control substance. The experimental groups […]
(§4) The presence of tumor masses and their size, as well as the body weight of the mice, were recorded every 5 days during observation. In accordance with humane principles, animals were euthanized by placing the mice in a CO2 inhalation chamber (ZOONLAB GmbH, Germany).
Conjugate Method of injection Dose Number of animals 22Rv1 PC-3 […]
3.4. In vivo Efficacy Evaluation
Days after tumor implantation / mass± error, g
Conjugate 7 day 12 day 17 day […]
injection) injection) injection)
Human prostate carcinoma 22Rv1
Human prostate adenocarcinoma PC-3
Table S3. Tumor growth dynamics of 22Rv1 and PC-3 in mice with intravenous triple injection of […]
ate Days after tumor implantation / V±m, mm3

[2] = system: 22Rv1 human prostate carcinoma xenograft; conditions: 22Rv1 xenograft; for tumor volume V±m: i.v. triple injection, single dose 132.3 nM/kg; for Tumor growth inhibition: i.v. 132.3 nM/kg three times
Protocol: (§5) We carried out in vivo studies of the efficacy of the obtained bimodal conjugates. […] Also, conjugate I (Figure 5) was used as a reference compound. An isotonic (0.9%) sodium chloride solution was used as a negative control. Studies were carried out in xenograft models of 22Rv1 human prostate carcinoma and PC-3 prostate adenocarcinoma in immunodeficient Balb/c nude mice (male).
(§6) Two cell lines were used: human prostate carcinoma 22Rv1 and prostate adenocarcinoma PC-3 (ATCC collection). Cells were cultured in 75 cm^2 vials (Costar, Washington, DC, USA) in RPMI-1640 medium (PanEco, Russia) with the addition of 2 mM L-glutamine (PanEco, Russia) and 10% fetal calf serum (HyClone, Logan, UT, USA) under standard conditions of cultivation (in a humidified atmosphere at 37 °C and 5% CO2). Cells of 6–10 passages were used to inoculate the animals. Cell suspension was prepared with a concentration of 5 × 10^6 cells in 0.05 mL of the 22Rv1 medium and in 0.1 mL of the PC-3 medium. 22Rv1 cells were inoculated into animals in Matrigel (BD Matrigel Basement Membrane Matrix, BD Biosciences, San Jose, CA, USA). Manipulations with Matrigel were performed on a refrigerated plate using precooled materials, tubes and instrumentation. For animal administration, 50 μL of the cell suspension (5 × 10^6 cells) was transferred to a chilled tube containing 50 μL of Matrigel; after mixing, the cellular material (final volume of 100 μL) was injected subcutaneously into the groin area of the animal. To obtain subcutaneous xenograft PC-3, a 5 × 10^6 suspension of tumor cells was inoculated subcutaneously into the inguinal cavity of male mice in a volume of 0.1 mL.
(§7) To study the antitumor efficacy, conjugates were administered intravenously at a dose of 132.3 nM/kg to tumor-bearing mice three times at five-day intervals; administration was started 7−8 days after cell inoculation, and the tumor size was 70−90 mm^3. As a control substance, 0.9% sodium chloride solution was used. Experimental groups included five animals each. […] The mixture was dissolved in DMSO (5% of final solution) and diluted with hemodesum (30% low-molecular-weight polyvinylpyrrolidone (Mw = 8000 ± 200) saline infusion solution). The presence of tumors and their sizes, as well as the body weights of the mice, were recorded every five days during the observation of the animals. The antitumor effect was assessed by comparing the tumor volumes in the experimental and control groups as well as the amount of tumor growth inhibition (TGI, %).
(§8) Tumor volume was calculated using Formula (1):V = d1 × d2 × d3 × 0.52(1) where d1, d2 and d3 are the three mutually perpendicular dimensions of the tumor. […]
as §1, §2, §3, §4

[3] = system: PC-3 prostate adenocarcinoma xenograft; conditions: PC-3 xenograft; for tumor volume V±m: i.v. triple injection, single dose 132.3 nM/kg; for Tumor growth inhibition: i.v. 132.3 nM/kg three times; for TGI, did not exceed: i.v. 132.3 nM/kg three times at five-day intervals, male Balb/c nude mice
Protocol: as §5, §6, §7, §8, §1, §2, §3, §4

[4] = 22Rv1 xenograft mice, 7 day after tumor implantation (1st injection)
[5] = 22Rv1 xenograft mice, 12 day after tumor implantation (2nd injection)
[6] = 22Rv1 xenograft mice, 17 day after tumor implantation (3rd injection)
[7] = 22Rv1 xenograft mice, 22 day after tumor implantation
[8] = 22Rv1 xenograft mice, 27 day after tumor implantation
[9] = 22Rv1 xenograft mice, 33 day after tumor implantation
[10] = 22Rv1 xenograft mice, 37 day after tumor implantation
[11] = PC-3 xenograft mice, 7 day after tumor implantation (1st injection)
[12] = PC-3 xenograft mice, 12 day after tumor implantation (2nd injection)
[13] = PC-3 xenograft mice, 17 day after tumor implantation (3rd injection)
[14] = PC-3 xenograft mice, 22 day after tumor implantation
[15] = PC-3 xenograft mice, 27 day after tumor implantation
[16] = PC-3 xenograft mice, 33 day after tumor implantation
[17] = PC-3 xenograft mice, 37 day after tumor implantation
[18] = 7 day after tumor implantation (1st injection)
[19] = 12 day after tumor implantation (2nd injection)
[20] = 17 day after tumor implantation (3rd injection)
[21] = 22 day after tumor implantation
[22] = 33 day after tumor implantation
[23] = 37 day after tumor implantation
[24] = days after the start of treatment: 1
[25] = days after the start of treatment: 5
[26] = days after the start of treatment: 10
[27] = days after the start of treatment: 16
[28] = days after the start of treatment: 20

| Compound | body weight, mass ± error [1, 4] [g] | body weight, mass ± error [1, 5] [g] | body weight, mass ± error [1, 6] [g] | body weight, mass ± error [1, 7] [g] | body weight, mass ± error [1, 8] [g] | body weight, mass ± error [1, 9] [g] | body weight, mass ± error [1, 10] [g] | body weight, mass ± error [1, 11] [g] | body weight, mass ± error [1, 12] [g] | body weight, mass ± error [1, 13] [g] | body weight, mass ± error [1, 14] [g] | body weight, mass ± error [1, 15] [g] | body weight, mass ± error [1, 16] [g] | body weight, mass ± error [1, 17] [g] | tumor volume V±m [2, 18] [mm3] | tumor volume V±m [2, 19] [mm3] | tumor volume V±m [2, 20] [mm3] | tumor volume V±m [2, 21] [mm3] | tumor volume V±m [2, 22] [mm3] | tumor volume V±m [2, 23] [mm3] | other results |
| --- | --- | --- | --- | --- | --- | --- | --- | --- | --- | --- | --- | --- | --- | --- | --- | --- | --- | --- | --- | --- | --- |
| CC[C@H](C)[C@@H]([C@@H](CC(=O)N1CCC[C@H]1[C@H](OC)[C@@H](C)C(=O)N[C@H](C)[C@@H](O)c1ccccc1)OC)N(C)C(=O)[C@@H](NC(=O)[C@H](C(C)C)N(C)C(=O)OCc1ccc(NC(=O)[C@H](CCCNC(N)=O)NC(=O)[C@@H](NC(=O)CCCc2cn(CCCNC(=O)[C@H](CCCCNC(=O)c3ccc(N4C(=S)N(c5ccc(C#N)c(C(F)(F)F)c5)C(=O)C4(C)C)cc3F)NC(=O)[C@H](Cc3ccc(O)cc3)NC(=O)[C@H](Cc3ccccc3)NC(=O)CCC(=O)NCCCCCC(=O)N(CCCC[C@H](NC(=O)N[C@@H](CCC(=O)O)C(=O)O)C(=O)O)Cc3cccc(Cl)c3)nn2)C(C)C)cc1)C(C)C [compound 15] ({GluureaLys(ε-3-ClBenzyl)-Ahx-Suc}-FYK(X3)[X2]V[Cit][PABC][NMeV]V[Dil][Dolaproine]-X1) | 25.2 ± 1.2 | 25.0 ± 1.2 | 25.0 ± 1.2 | 25.2 ± 1.3 | 25.1 ± 1.3 | 25.2 ± 1.3 | 25.5 ± 1.5 | 23.9 ± 2.1 | 23.8 ± 2.1 | 24.0 ± 2.2 | 24.4 ± 2.3 | 24.8 ± 2.1 | 24.9 ± 1.8 | 25.1 ± 1.9 | 73.3±8.8 | 64.7±15.3 | 76.1±46.5 | 171.6 | 650.1 | 988.7 | Tumor growth inhibition [2, 24]: 64.5%; Tumor growth inhibition [2, 25]: 67.6%; Tumor growth inhibition [2, 26]: 71.3%; Tumor growth inhibition [2, 27]: 67.9%; Tumor growth inhibition [2, 28]: 65.4%; tumor volume V±m [3, 18]: 83.1±6.8 mm3; tumor volume V±m [3, 19]: 117.6 mm3; tumor volume V±m ([3]; 27 day after tumor implantation): 534.3 mm3; tumor volume V±m [3, 22]: 819.8 mm3; tumor volume V±m [3, 23]: 1318.4 mm3; Tumor growth inhibition [3, 24]: 20.5%; Tumor growth inhibition [3, 25]: 18.5%; Tumor growth inhibition [3, 26]: 36.5%; Tumor growth inhibition [3, 27]: 39.7%; Tumor growth inhibition [3, 28]: 51.7%; TGI, did not exceed [3]: ≤ 51.7% |
| CC[C@H](C)[C@@H]([C@@H](CC(=O)N1CCC[C@H]1[C@H](OC)[C@@H](C)C(=O)N[C@H](C)[C@@H](O)c1ccccc1)OC)N(C)C(=O)[C@@H](NC(=O)[C@H](C(C)C)N(C)C(=O)OCc1ccc(NC(=O)[C@H](CCCNC(N)=O)NC(=O)[C@@H](NC(=O)CCCc2cn(CCCNC(=O)[C@H](Cc3ccc(O)cc3)NC(=O)[C@H](Cc3ccccc3)NC(=O)CCC(=O)NCCCCCC(=O)N(CCCC[C@H](NC(=O)N[C@@H](CCC(=O)O)C(=O)O)C(=O)O)Cc3cccc(Cl)c3)nn2)C(C)C)cc1)C(C)C [I, reference compound] ({GluureaLys(ε-3-ClBenzyl)-Ahx-Suc}-FY[X2]V[Cit][PABC][NMeV]V[Dil][Dolaproine]-X1) | 23.4 ± 0.8 | 23.9 ± 1.2 | 23.5 ± 1.7 | 23.4 ± 1.5 | 23.2 ± 1.4 | 23.2 ± 1.6 | 23.4 ± 1.5 | 22.4 ± 2.1 | 22.8 ± 1.8 | 22.4 ± 1.6 | 22.8 ± 1.4 | 23.0 ± 1.3 | 23.2 ± 1.4 | 23.1 ± 1.3 | 78.3±16.3 | 85.4±25.5 | 92.6±34.8 | 147.7 | 419.5 | 824.4 | Tumor growth inhibition [2, 24]: 77.4%; Tumor growth inhibition [2, 27]: 80.1%; Tumor growth inhibition [2, 28]: 71.0%; tumor volume V±m [3, 18]: 80.3±4.5 mm3; tumor volume V±m [3, 19]: 92.6±14.8 mm3; tumor volume V±m [3, 20]: 128.9 mm3; tumor volume V±m [3, 22]: 1059.1 mm3; tumor volume V±m [3, 23]: 1855.5 mm3; Tumor growth inhibition [3, 27]: 37.2%; Tumor growth inhibition [3, 28]: 21.1%; TGI, did not exceed [3]: ≤ 37.7% |
